Experimental data reported in article PMC8921294, “Inhibition of mitochondrial LonP1 protease by allosteric blockade of ATP binding and hydrolysis via CDDO and its derivatives” (The Journal of Biological Chemistry, 2022).
Substitutions are numbered along the chain they refer to.

Tests used:
LonP1 F547A/C576V = target: T1, LonP1 F547A/C576V (Homo sapiens, UniProt P36776, C576V/F547A); assay: Endpoint ATPase assay, LonP1 F547A/C576V; format: biochemical
T1 construct: hexa-histidine (N); made in house; host or cells: Rosetta 2 E. coli
T1 sequence (P36776 68-959 F547A/C576V): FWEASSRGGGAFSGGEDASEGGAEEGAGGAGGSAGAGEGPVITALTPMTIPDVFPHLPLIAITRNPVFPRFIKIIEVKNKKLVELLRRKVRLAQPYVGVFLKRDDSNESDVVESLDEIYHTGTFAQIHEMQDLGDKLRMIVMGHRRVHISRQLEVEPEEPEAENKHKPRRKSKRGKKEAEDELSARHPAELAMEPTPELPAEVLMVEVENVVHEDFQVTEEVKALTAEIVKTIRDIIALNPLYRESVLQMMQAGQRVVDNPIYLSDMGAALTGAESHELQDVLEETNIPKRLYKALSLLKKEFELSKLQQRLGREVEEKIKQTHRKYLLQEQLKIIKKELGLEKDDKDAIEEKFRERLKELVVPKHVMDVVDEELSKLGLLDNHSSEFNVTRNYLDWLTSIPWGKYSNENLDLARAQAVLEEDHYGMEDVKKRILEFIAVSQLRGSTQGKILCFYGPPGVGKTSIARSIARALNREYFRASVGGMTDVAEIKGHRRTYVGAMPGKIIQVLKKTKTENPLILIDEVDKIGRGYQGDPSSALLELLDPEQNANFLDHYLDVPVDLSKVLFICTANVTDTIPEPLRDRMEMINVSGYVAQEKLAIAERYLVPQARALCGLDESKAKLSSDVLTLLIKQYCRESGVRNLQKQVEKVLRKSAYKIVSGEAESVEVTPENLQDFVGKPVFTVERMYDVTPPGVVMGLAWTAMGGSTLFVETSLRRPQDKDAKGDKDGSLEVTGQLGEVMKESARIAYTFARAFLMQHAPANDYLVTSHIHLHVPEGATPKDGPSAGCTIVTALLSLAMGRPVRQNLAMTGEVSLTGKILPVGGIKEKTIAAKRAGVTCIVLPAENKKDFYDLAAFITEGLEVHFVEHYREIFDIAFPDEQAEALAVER
Protocol: (§1) Human mitochondrial LonP1 and mutants lacking the predicted mitochondrial targeting sequence were fused to an N-terminal hexa-histidine affinity tag, expressed in Rosetta 2 E. Coli, and purified using a nickel agarose column as previously described ([72]) and protein concentration and buffer exchange carried out using Amicon Ultra centrifugal filtration. LonP1 mutant constructs were obtained from the PCR-based QuikChange Site-Directed Mutagenesis Kit.
(§2) ADP-Glo (Promega) assays were performed according to the manufacturer's protocols. Purified wild-type or mutant LonP1 (400 nM monomer), the 26S proteasome (3 nM), or no enzyme controls were preincubated in 96-well plates (60 min, 25 °C) with ten different concentrations of CDDO and its derivatives, TP-82, enoxolone (5 μM) or DMSO vehicle control in buffer (40 mM Tris-HCl (pH 7.5), 20 mM MgCl2, 0.1 mg/ml BSA and 5% DMSO). The 26S and 20S proteasome were also assayed at 0, 0.75, 1.5, 3, 6, and 12 nM in the absence of CDDO derivatives. […] Assay reagents were used to quench further ATPase activity and generate luminescence signals proportional to the concentration of ADP formed. Background (no enzyme control) luminescence values were subtracted, and resultant values were reported as a percentage of the no drug control (100%). […]

LonP1 C637V = target: T2, LonP1 C637V (Homo sapiens, UniProt P36776, C637V); assay: Endpoint ATPase assay, LonP1 C637V; format: biochemical
T2 construct: hexa-histidine (N); made in house; host or cells: Rosetta 2 E. coli
T2 sequence (P36776 68-959 C637V): T1 sequence (P36776 68-959 F547A/C576V) with A480F, V509C, C570V
Protocol: as §1, §2

Fold increase in inhibition compared with WT (LonP1 F547A/C576V): 7.8
IC50 (LonP1 F547A/C576V; end-point ATPase assay, read-out: CDDO IC50): 1800 ± 800 nM
Fold increase in inhibition compared with WT (LonP1 C637V): 3.8
IC50 (LonP1 C637V; end-point ATPase assay, N = 1, read-out: CDDO IC50): 3700 nM
SMILES: CC1(C)CC[C@]2(C(=O)O)CC[C@]3(C)[C@H](C(=O)C=C4[C@@]5(C)C=C(C#N)C(=O)C(C)(C)[C@@H]5CC[C@]43C)[C@@H]2C1 [CDDO, 2-cyano-3,12-dioxooleana-1,9(11)-dien-28-oic acid]
